Legend:
[1] = Pre- and postnatal study, intranasal esketamine, pregnant rats; format: in vivo, rat; details: female, rat, in vivo, inhaled or intranasal; intranasal; pregnancy and lactation; read-out: NOAEL for maternal toxicity and decreased motor activity during the postweaning period
Procedure: (§1) This sensory/motor developmental measure was tested starting on postnatal day (PND) 9, and the effect normalized by PND 19 in treatment groups as compared with PND 14 for the majority of the control animals. There is no NOAEL for this delay in sensory/motor response observed in pups during the preweaning period.

[2] = system: pregnant rats and pups; experiment: as above; format: in vivo, rat
Procedure: as §1

[3] = Protein binding; format: in vitro ADME
From the text: Protein binding of esketamine was approximately 43% to 45%.

[4] = system: subjects with MDD at imminent risk for suicide; details: post dose
Procedure: The CADSS was measured prior to the start of each dose, at 40 minutes, 2 hours, and 4 hours postdose.

[5] = system: transgenic (Tg.rasH2) mice; experiment: 6-month study in transgenic (Tg.rasH2) mice; format: in vivo, mouse; details: once-daily subcutaneous up to 75 mg/kg/day (reduced to 40 mg/kg/day during week 17); 6 months
[6] = Clinical pharmacokinetics of esketamine (label)
[7] = system: patients with treatment-resistant depression (TRD); experiment: MADRS total score, response and remission (Example 7, phase 2 dose-response study); format: in vivo, human; details: for MADRS: treatment difference relative to placebo: day 15, completers, same treatment 2 weeks; for MADRS: LS mean difference vs placebo, range over dose groups: 28, 56, 84 mg
Procedure: At the beginning of double-blind Period 1, eligible participants were randomized (3:1:1:1) to intranasal placebo or esketamine 28, 56, or 84 mg, twice weekly (days 1 and 4) based on the first of two computer-generated randomization schedules (Period 1 and Period 2). Randomization was balanced by using randomly permuted blocks and stratified by study center. At the end of Period 1, those randomized to placebo who had moderate-to-severe symptoms (assessed by Quick Inventory of Depressive Symptomatology-Self Report (Trivedi 2016 and Rush, “The 16-item Quick Inventory of Depressive Symptomatology (QIDS) Clinician Rating (QIDS-C) and Self-Report (QIDS-SR): A psychometric evaluation in patients with chronic major depression”, Biol. Psychiatry, 2003, 54(5):573-583) [QIDS-SR16] total score: moderate, 11-16; severe, >16) were re-randomized (1:1:1:1) to intranasal esketamine 28, 56, or 84 mg or placebo, twice weekly (days 8 and 11), while those having mild or no symptoms continued on placebo. To maintain the blind, all participants completed an identical process prior to entry into Period 2, whether or not they were re-randomized. Regardless of response in the double-blind phase, all participants were eligible to enter the optional open-label phase. Esketamine (56 mg) was administered on the first day of the open-label phase (study day 15); subsequent doses could be adjusted (range: 28 to 84 mg) based on investigator's clinical judgment, with administration twice weekly for first 2 weeks, weekly for next 3 weeks, then every 2 weeks thereafter.
Efficacy was assessed with the Montgomery-Asberg Depression Rating Scale (MADRS; Montgomery, “A new depression scale designed to be sensitive to change”, Br. J. Psychiatry, 1979, 134:382-389; Williams, “Development and reliability of a structured interview guide for the Montgomery Asberg Depression Rating Scale (SIGMA)”, Br. J. Psychiatry, 2008, 192(1):52-58) on days 1 (pre-dose and 2 hour post-dose), 2, 8 (pre-dose), 9, and 15, using the structured interview guide (SIGMA). See, Williams 2008.
The primary efficacy endpoint—change from baseline (pre-dose, day 1 in each period) to endpoint (day 8 in each period) in MADRS total score—was analyzed using the analysis of covariance (ANCOVA) model. For Period 1, the model included treatment and country as factors, and baseline MADRS total score as covariate. For Period 2, the model included treatment and country as factors, Period 2 baseline QIDS-SR16 score (moderate or severe), and Period 2 baseline MADRS total score as a continuous covariate.
Given the consistency between Periods 1 and 2 results (Chi 2016), esketamine dose groups were compared to placebo using a combined test on the weighted test statistics for each period in the double-blind treatment phase. A dose-response analysis on primary efficacy endpoint was performed using data combined from both periods. The Multiple Comparison Procedure—Modelling (MCP-Mod) methodology was performed (Williams 2008; Bretz, “Combining multiple comparisons and modeling techniques in dose-response studies”, Biometrics, 2005, 61:738-748).

[8] = human, plasma, other: nasal spray
[9] = OL endpoint - day 74, Placebo/Esketamine/OL Esketamine
[10] = Period 1, study period endpoint, esketamine 28 mg
[11] = Period 2, 2 hours, esketamine 84 mg
[12] = Period 2, 24 hours, esketamine 84 mg
[13] = Period 2, study period endpoint, esketamine 84 mg
[14] = Week 8 (Follow-up), Placebo/Esketamine/OL Esketamine

In the case of `CN[C@]1(c2ccccc2Cl)CCCCC1=O` [esketamine, (S)-2-(2-chlorophenyl)-2-(methylamino)cyclohexanone], the NOAEL [1] is reported as 4.5 mg/kg/day, the “AUC exposure, multiple of the MRHD of 84 mg/day” value (“AUC exposure, multiple” below) ([2]; 4.5 mg/kg/day intranasal) is reported as 0.07 times and the “AUC exposure, multiple” value ([2]; 15 mg/kg/day intranasal) is reported as 0.5 times. The “AUC exposure, multiple” value ([2]; 45 mg/kg/day intranasal) was 0.7 times, the fraction unbound [3] was 0.55 to 0.57 and the “Dissociative and perceptual change symptoms (CADSS) resolved by” value [4] was at most 2 h. The Incidence of tumors [5] was “did not increase the incidence of tumors”, the “Time to reach maximum plasma concentration” value ([6]; after the last nasal spray of a treatment session) was 20 to 40 min and the “Presence in human milk” value ([6]; human, in vivo) was “present in human milk”. For the same compound, the bioavailability ([6]; human, plasma, inhaled or intranasal) was about 48%, the clearance ([6]; human, plasma, iv) was about 1480 mL/min and the “Inter-subject variability, AUC∞” value [6, 8] was 18% to 45. For the same compound, the “Inter-subject variability, Cmax” value [6, 8] was 27% to 66, the “Intra-subject variability, AUC∞” value [6, 8] was about 10% and the “Intra-subject variability, Cmax” value [6, 8] was “approximately 15%”. The “Dose excreted as unchanged drug in urine” value ([6]; nasal) was “Less than 1%”, the Accumulation in plasma ([6]; twice a week administration) was “No accumulation” and the “MADRS: treatment difference relative to placebo” value ([7]; 28 mg) was −6.0. The “MADRS: treatment difference relative to placebo” value ([7]; 56 mg) was −8.3, the “Proportion of responders (MADRS)” value ([7]; 84 mg, Period 2 endpoint) was 50.0% and the “Remitted (MADRS)” value ([7]; 84 mg, after 2 weeks of treatment) was 40.0%. The “MADRS response (≥50% improvement), %” value [7, 9] was 50.0%, the “Remission (MADRS ≤10): No, %” value [7, 9] was 60.0% and the “Remission (MADRS ≤10): Yes, %” value [7, 9] was 40.0%. The “MADRS response (≥50% improvement), %” value ([7]; OL endpoint - day 74, Placebo/Placebo/OL Esketamine) was 100%, the “MADRS Remitters, %” value ([7]; Period 1, 2 hours, esketamine 84 mg) was “(25.0) %” and the “MADRS Remitters, %” value ([7]; Period 1, 24 hours, esketamine 84 mg) was “(25.0) %”. For the same compound, the “MADRS Remitters, %” value [7, 10] was “(9.1) %”, the “MADRS Responders, %” value [7, 10] was “(9.1) %” and the “MADRS Remitters, %” value ([7]; Period 1, study period endpoint, esketamine 56 mg) was “(9.1) %”. The “MADRS Remitters, %” value ([7]; Period 1, study period endpoint, esketamine 84 mg) was “(25.0) %”, the “MADRS: LS mean difference vs placebo, range over dose groups” value ([7]; Period 1) was −5.0 to −10.5 and the “MADRS Remitters, %” value [7, 11] was “(40.0) %”. For the same compound, the “MADRS Responders, %” value [7, 11] was “(40.0) %”, the “MADRS Remitters, %” value [7, 12] was “(20.0) %” and the “MADRS Responders, %” value [7, 12] was “(40.0) %”. For the same compound, the “MADRS Remitters, %” value [7, 13] was “(20.0) %”, the “MADRS Responders, %” value [7, 13] was “(20.0) %” and the “MADRS: LS mean difference vs placebo, range over dose groups” value ([7]; Period 2) was −3.1 to −6.9. For the same compound, the “MADRS response (≥50% improvement), %” value [7, 14] was 25.0%, the “Remission (MADRS ≤10): No, %” value [7, 14] was 75.0% and the “Remission (MADRS ≤10): Yes, %” value [7, 14] was 25.0%.

Source: patent US11980596B2 (priority 2017, dated 2024)
